{
  "source": "patent EP2826473A1",
  "about": "“NOVEL USE OF PATCHOULOL” (Chengdu Huasun Group Inc., Ltd., priority 2012, dated 2013)",
  "key": {"termites": {"tested_on": "termites", "settings": "in vivo; cited from earlier work"}, "Klebsiella pneumonia E^+": {"tested_on": "Klebsiella pneumonia E^+", "experiment": "in vitro bacteriostatic activity, agar dilution MIC", "type": "cell-based", "settings": "Klebsiella pneumoniae"}, "[1]": {"tested_on": "Staphylococcus haemolyticus", "experiment": "in vitro bacteriostatic activity, agar dilution MIC", "type": "cell-based"}, "Klebsiella pneumonia E^-": {"tested_on": "Klebsiella pneumonia E^-", "experiment": "in vitro bacteriostatic activity, agar dilution MIC", "type": "cell-based"}, "[2]": {"tested_on": "Staphylococcus aureus ATCC 25923", "experiment": "prevention of bacterial infection, colony count on patchoulol-coated tubes", "settings": "cultured 7 days at 37°C"}, "[3]": {"tested_on": "learning and memory ability", "settings": "mice, scopolamine, intragastric 80 and 40 mg/kg; cited from earlier work"}, "Corynebacterium": {"tested_on": "Corynebacterium", "experiment": "in vitro bacteriostatic activity, agar dilution MIC", "type": "cell-based", "settings": "Coryneba cterium 12-1"}, "Enterococcus faecium": {"tested_on": "Enterococcus faecium", "experiment": "in vitro bacteriostatic activity, agar dilution MIC", "type": "cell-based", "settings": "Enterococcus faecium, read-out: MIC"}, "influenza virus H2N2": {"tested_on": "influenza virus H2N2", "settings": "intragastric administration of 5 mg/(kg·d); cited from earlier work"}, "[4]": {"tested_on": "Chryseobacterium indologenes", "experiment": "in vitro bacteriostatic activity, agar dilution MIC", "type": "cell-based"}, "[5]": {"tested_on": "Staphylococcus epidermidis ATCC 12228", "experiment": "in vitro bacteriostatic activity, agar dilution MIC, quality control strain", "type": "cell-based", "settings": "ATCC12228; Staphylococcus epidermidis ATCC 12228; read-out: MIC"}, "Streptococcus pneumoniae": {"tested_on": "Streptococcus pneumoniae", "experiment": "in vitro bacteriostatic activity, agar dilution MIC", "type": "cell-based"}, "[6]": {"tested_on": "Staphylococcus epidermidis MSSE", "experiment": "in vitro bacteriostatic activity, agar dilution MIC", "type": "cell-based", "settings": "Staphylococcus epidermidis, read-out: MIC"}, "[7]": {"tested_on": "Gram-positive bacteria and Gram-negative bacteria", "experiment": "in vitro bacteriostatic activity, summary of Tables 1-5", "type": "cell-based", "settings": "read-out: MIC values", "method": "Preparation of drug-containing flat plates: patchoulol was diluted by coubling double dilution in DMSO, and 1 ml and 14 ml of sterile MH culture media in different gradient concentrations were respectively added to the disposable sterile petri dishes. Tested drugs were respectively diluted to different gradient concentrations from 768 to 0.006 µg/ml, fully mixed, and dried to reserve. As mentioned above, replacing tested drug with same amount of normal saline was used to prepare positive control plates.\nPreparation of bacterial liquid: Tested strains and drug-sensitive strains used for quality control were diluted with stroke-physiological saline solution to the concentration of 10^6 CFU/ml. […]\nStaphylococcus aureus and Staphylococcus epidermidis were cultured at 35-37°C for 18-24 h in MH media (containing 2% NaCl); Streptococcus pneumonia was cultured in brain heart infusion agar media (containing 5% goat blood) within an incubator under 5% CO2 at 35°C for 24 hours; Gram-negative bacteria and other strains were placed in an incubator at 35-37°C and cultured for 18-20 h; Results were observed and recorded. […]"}, "Enterococcus faecalis": {"tested_on": "Enterococcus faecalis", "experiment": "in vitro bacteriostatic activity, agar dilution MIC", "type": "cell-based", "settings": "Enterococcus faecalis, read-out: MIC"}, "[8]": {"settings": "mouse, in vivo, po; cited from earlier work"}, "[9]": {"tested_on": "Staphylococcus saprophyticus", "experiment": "in vitro bacteriostatic activity, agar dilution MIC", "type": "cell-based"}, "Escherichia coli": {"tested_on": "Escherichia coli", "experiment": "in vitro bacteriostatic activity, agar dilution MIC, quality control strain and summary", "type": "cell-based"}},
  "note": "Like-named read-outs stand apart in the source and are kept apart here.",
  "data": [
    {"smiles": "C[C@H]1CC[C@@]2(O)C(C)(C)[C@@H]3CC[C@@]2(C)[C@H]1C3", "note": "(stereo in doubt) [PC, (1R,4S,4aS,6R,8aS)-octahydro-4,8a,9,9-tetramethyl-1,6-methanonaphthalen-1(2H)-ol]", "values": [
      {"measurement": "effect on termites", "setting": "termites", "result": "obviously toxic and removal effect"},
      {"measurement": "MIC", "setting": "Klebsiella pneumonia E^+; Klebsiella pneumonia E^+ 10-2", "result": "> 768", "unit": "µg/mL"},
      {"measurement": "MIC", "setting": "Klebsiella pneumonia E^+; Klebsiella pneumonia E^+ 10-6", "result": "> 768", "unit": "µg/mL"},
      {"measurement": "MIC", "setting": "[1]", "result": 100, "unit": "µg/mL"},
      {"measurement": "MIC", "setting": "Klebsiella pneumonia E^-; Klebsiella pneumonia E^- 10-18", "result": ">768", "unit": "µg/mL"},
      {"measurement": "MIC", "setting": "Klebsiella pneumonia E^-; Klebsiella pneumoniae, Klebsiella pneumonia E^- 10-16, read-out: MIC", "result": "> 768", "unit": "µg/mL"},
      {"measurement": "bacterial colony numbers", "setting": "[2]; 400, 200, 100 and 50 µg/ml, compared with 0 µg/ml", "result": "decrease"},
      {"measurement": "bacterial colony numbers", "setting": "[2]; patchoulol on intraductal membranes more than or equal to 600 µg/ml", "result": 0},
      {"measurement": "learning and memory ability", "setting": "[3]", "result": "enhance learning and memory ability"},
      {"measurement": "MIC", "setting": "Corynebacterium", "result": 12.5, "unit": "µg/mL"},
      {"measurement": "MIC", "setting": "Enterococcus faecium; ATCC33186, Enterococcus faecium ATCC 33186", "result": 128, "unit": "µg/mL"},
      {"measurement": "MIC", "setting": "Enterococcus faecium; Enterococcus faecium 12-7", "result": 64, "unit": "µg/mL"},
      {"measurement": "MIC", "setting": "Enterococcus faecium; Enterococcus faecium 12-8", "result": 64, "unit": "µg/mL"},
      {"measurement": "MIC", "setting": "Enterococcus faecium; Enterococcus faecium 12-9", "result": 64, "unit": "µg/mL"},
      {"measurement": "MIC", "setting": "Enterococcus faecium; Enterococcus faecium 12-10", "result": 32, "unit": "µg/mL"},
      {"measurement": "MIC", "setting": "Enterococcus faecium; Enterococcus faecium 12-11", "result": 32, "unit": "µg/mL"},
      {"measurement": "MIC", "setting": "Enterococcus faecium; Enterococcus faecium 12-12", "result": 64, "unit": "µg/mL"},
      {"measurement": "MIC", "setting": "Enterococcus faecium; Enterococcus faecium 12-13", "result": 64, "unit": "µg/mL"},
      {"measurement": "MIC", "setting": "Enterococcus faecium; Enterococcus faecium 12-14", "result": 64, "unit": "µg/mL"},
      {"measurement": "MIC", "setting": "Enterococcus faecium; Enterococcus faecium 12-15", "result": 32, "unit": "µg/mL"},
      {"measurement": "MIC", "setting": "Enterococcus faecium; Enterococcus faecium 12-16", "result": 32, "unit": "µg/mL"},
      {"measurement": "protective effect on infected model mice", "setting": "influenza virus H2N2", "result": "obvious protective effect"},
      {"measurement": "MIC", "setting": "[4]; Chryseobacterium indologenes12- (first line, r25)", "result": 25, "unit": "µg/mL"},
      {"measurement": "MIC", "setting": "[4]; Chryseobacterium indologenes12- (second line, r26)", "result": 100, "unit": "µg/mL"},
      {"measurement": "MIC", "setting": "[5]", "result": 64, "unit": "µg/mL"},
      {"measurement": "MIC", "setting": "Streptococcus pneumoniae; ATCC49619, Streptococcus pneumonia ATCC 49619", "result": 200, "unit": "µg/mL"},
      {"measurement": "MIC", "setting": "Streptococcus pneumoniae; Streptococcus pneumonia 12-6", "result": 100, "unit": "µg/mL"},
      {"measurement": "MIC", "setting": "Streptococcus pneumoniae; Streptococcus pneumonia 12-7", "result": 200, "unit": "µg/mL"},
      {"measurement": "MIC", "setting": "Streptococcus pneumoniae; Streptococcus pneumonia 12-8", "result": 100, "unit": "µg/mL"},
      {"measurement": "MIC", "setting": "Streptococcus pneumoniae; Streptococcus pneumonia 12-9", "result": 100, "unit": "µg/mL"},
      {"measurement": "MIC", "setting": "Streptococcus pneumoniae; Streptococcus pneumonia 12-10", "result": 200, "unit": "µg/mL"},
      {"measurement": "MIC", "setting": "Streptococcus pneumoniae; Streptococcus pneumoniae 12-1", "result": 200, "unit": "µg/mL"},
      {"measurement": "MIC", "setting": "Streptococcus pneumoniae; Streptococcus pneumoniae 12-2", "result": 100, "unit": "µg/mL"},
      {"measurement": "MIC", "setting": "Streptococcus pneumoniae; Streptococcus pneumoniae 12-3", "result": 200, "unit": "µg/mL"},
      {"measurement": "MIC", "setting": "Streptococcus pneumoniae; Streptococcus pneumoniae 12-4", "result": 200, "unit": "µg/mL"},
      {"measurement": "MIC", "setting": "Streptococcus pneumoniae; Streptococcus pneumoniae 12-5", "result": 100, "unit": "µg/mL"},
      {"measurement": "MIC", "setting": "[6]; Staphylococcus epidermidis MSSE 10-43", "result": 1.5, "unit": "µg/mL"},
      {"measurement": "MIC", "setting": "[6]; Staphylococcus epidermidis MSSE 10-44", "result": 1.5, "unit": "µg/mL"},
      {"measurement": "MIC", "setting": "[6]; Staphylococcus epidermidis MSSE 12-11", "result": 32, "unit": "µg/mL"},
      {"measurement": "MIC", "setting": "[6]; Staphylococcus epidermidis MSSE 12-12", "result": 32, "unit": "µg/mL"},
      {"measurement": "MIC", "setting": "[6]; Staphylococcus epidermidis MSSE 12-13", "result": 64, "unit": "µg/mL"},
      {"measurement": "MIC", "setting": "[6]; Staphylococcus epidermidis MSSE 12-14", "result": 64, "unit": "µg/mL"},
      {"measurement": "MIC", "setting": "[6]; Staphylococcus epidermidis MSSE 12-15", "result": 64, "unit": "µg/mL"},
      {"measurement": "MIC", "setting": "[6]; Staphylococcus epidermidis MSSE 12-16", "result": 32, "unit": "µg/mL"},
      {"measurement": "MIC", "setting": "[6]; Staphylococcus epidermidis MSSE 12-17", "result": 32, "unit": "µg/mL"},
      {"measurement": "MIC", "setting": "[6]; Staphylococcus epidermidis MSSE 12-18", "result": 32, "unit": "µg/mL"},
      {"measurement": "MIC", "setting": "[6]; Staphylococcus epidermidis MSSE 12-19", "result": 32, "unit": "µg/mL"},
      {"measurement": "MIC", "setting": "[6]; Staphylococcus epidermidis MSSE 12-20", "result": 64, "unit": "µg/mL"},
      {"measurement": "MIC", "setting": "[7]", "result": "1.5 to 200", "unit": "µg/mL"},
      {"measurement": "MIC", "setting": "Enterococcus faecalis; ATCC29212, Enterococcus faecalis ATCC 29212", "result": 128, "unit": "µg/mL"},
      {"measurement": "MIC", "setting": "Enterococcus faecalis; ATCC51299, Enterococcus faecalis (high endurance) ATCC 51299", "result": 128, "unit": "µg/mL"},
      {"measurement": "MIC", "setting": "Enterococcus faecalis; Enterococcus faecalis 12-11", "result": "> 128", "unit": "µg/mL"},
      {"measurement": "MIC", "setting": "Enterococcus faecalis; Enterococcus faecalis 12-12", "result": 32, "unit": "µg/mL"},
      {"measurement": "MIC", "setting": "Enterococcus faecalis; Enterococcus faecalis 12-13", "result": 128, "unit": "µg/mL"},
      {"measurement": "MIC", "setting": "Enterococcus faecalis; Enterococcus faecalis 12-14", "result": 64, "unit": "µg/mL"},
      {"measurement": "MIC", "setting": "Enterococcus faecalis; Enterococcus faecalis 12-17", "result": 128, "unit": "µg/mL"},
      {"measurement": "MIC", "setting": "Enterococcus faecalis; Enterococcus faecalis 12-18", "result": 128, "unit": "µg/mL"},
      {"measurement": "MIC", "setting": "Enterococcus faecalis; Enterococcus faecalis 12-19", "result": 128, "unit": "µg/mL"},
      {"measurement": "MIC", "setting": "Enterococcus faecalis; Enterococcus faecalis 12-20", "result": 128, "unit": "µg/mL"},
      {"measurement": "MIC", "setting": "Enterococcus faecalis; Enterococcus faecalis 12-21", "result": 64, "unit": "µg/mL"},
      {"measurement": "MIC", "setting": "Enterococcus faecalis; Enterococcus faecalis 12-22", "result": 64, "unit": "µg/mL"},
      {"measurement": "maximum tolerated dose", "setting": "[8]", "result": "less than 12.5 g/kg"},
      {"measurement": "MIC", "setting": "[9]; Staphylococcus saprophyticus 12-2", "result": 100, "unit": "µg/mL"},
      {"measurement": "MIC", "setting": "[9]; Staphylococcus saprophyticus12-3", "result": 100, "unit": "µg/mL"},
      {"measurement": "MIC", "setting": "[9]; Staphylococcus saprophyticus, Staphylococcus saprophyticus12-1, read-out: MIC", "result": 100, "unit": "µg/mL"},
      {"measurement": "MIC", "setting": "Escherichia coli; ATCC25922, Escherichia coli ATCC 25922, read-out: MIC", "result": 768, "unit": "µg/mL"},
      {"measurement": "MIC", "setting": "Escherichia coli; summary, Escherichia coli ESBLs /ESBLs^+, read-out: MIC values", "result": "≥ 768", "unit": "µg/mL"}
    ]}
  ]
}
